{"source": "patent US20250109165A1", "about": "“CYCLOPHILIN INHIBITORS AND USES THEREOF” (The Broad Institute, Inc., priority 2022, published 2025)", "key": {"[1]": {"system": "cyclophilins", "experiment": "Prolyl-isomerase inhibition screen on cyclophilins and cyclophilin mutants", "assay_type": "biochemical, human", "description": "(§1) IC50 values were calculated to be the value at which 50% inhibition was achieved on each compound's non-linear regression fitted curve."}, "[2]": {"system": "cyclophilins", "experiment": "Anisotropy binding assay of fluorescein-labeled macrocycles", "parameters": "species or system human", "conditions": "0.5 nM fluorescein-labeled macrocycle", "description": "Final assay volume was 100 μL with 0.25% DMSO. Fluorescence anisotropy was then measured using a Tecan Spark® plate reader using 492 nm/523 nm excitation/emission settings."}, "[3]": {"system": "mPTP opening in isolated mouse liver mitochondria", "experiment": "Mitochondrial calcium retention capacity assay", "assay_type": "cell-based", "conditions": "2 μM CsA, 10 μM B52-Cy5, 10 μM *B52-Cy5, 20 μM B53-Cy5, 20 μM *B53-Cy5; pulses of 60 μM CaCl2; compared to DMSO control", "description": "Isolation of mouse liver mitochondria: All procedures used in animal studies were approved by the Institutional Animal Care and Use Committee at Massachusetts General Hospital. Female C57B1/6 J mice (Jackson Labs) age 10-12 weeks were anesthetized by isoflurane. The liver from one mouse was rinsed in ice-cold PBS, minced in ice-cold isolation buffer containing 0.28 M sucrose, 10 mM Hepes-KOH pH 7.2, 0.2 mM EDTA and 1% (w/v) BSA, gently homogenized with 4 strokes of a tight-fitting Teflon pestle at 1000 rpm, and then centrifuged for 10 minutes at 600 g at 4° C. The supernatant was recovered and centrifuged for 10 minutes at 8000 g at 4° C. The loose outer buffy coat was rinsed off and the pellet resuspended gently in isolation buffer and the spins were repeated. […] The suspension was kept on ice and all assays performed within 4-6 hours following isolation. Quality control was done with every preparation by adding 250 mcg mitochondria to 500 μl of assay buffer containing 137 mM KCl, 10 mM Hepes-KOH pH 7.2, 2.5 mM MgCl2, 5 mM each of glutamate and malate, and 3 mM KH2PO4. Sequential 150 μM ADP pulses were then delivered. Preparations with respiratory control ratio>6 (as assessed by the ratio of ADP-coupled state 3 respiration to state 4 respiration) were used for further experiments. Measurements were made in a custom-built fluorimeter using a cuvette with a Red Eye oxygen patch (Ocean Optics) and an optical probe that is connected to the fluorimeter.\nMitochondrial calcium retention capacity assays: 250 mcg of mouse liver mitochondria isolated as above were added to […] of assay buffer containing 125 mM KCl, 20 mM Hepes-KOH pH 7.2, 1 mM MgCl2, 5 mM each of glutamate and malate, and 3 mM KH2PO4. 0.5 μM Calcium Green-5N (Molecular Probes) was included to monitor extramitochondrial free Ca^2+. Fluorescence was continuously monitored in the custom-built fluorimeter described above, with excitation 470 nm and emission […]. Sequential 60 μM CaCl2) pulses were delivered until Ca^2+ uptake ceased and an abrupt release of previously taken up Ca^2+ was observed, consistent with mPTP opening. The calcium retention capacity ratio (CRC) was obtained by normalizing the number of Ca^2+ pulses that could be taken up in a given condition by that taken up under DMSO control conditions, as previously described^72."}, "[4]": {"system": "HeLa cells", "experiment": "Fluorescence microscopy on HeLa cells", "assay_type": "cell-based, human", "conditions": "Cy5 labeled compound 6 μM", "description": "Fluorescence microscopy on Hela cells. Into 96 well black, clear bottom TC treated plates, cells were seeded in Dulbecco's Modified Eagle Medium (DMEM) supplemented with 10% fetal bovine serum 24 hours prior at a density where wells were ˜80% confluent at time of experiment. Media was removed and cells were then stained with 50 μL of mixture containing Cy5 labeled compound (6 μM) in Kreb's ringer solution HEPES buffered pH 7.2 (KRB), for 1 hour at 37° C. Then, 50 μL Hoechst 33342 (8 μM) and Mitotracker Green FM (0.1 μM) in KRB was added directly to wells containing cells and incubated for 15 minutes at 37° C. Media was removed and cells were washed two times with 100 μL KRB. Cells were then kept adherent to the wells in 100 μL KRB for imaging. Fluorescence microscopy was conducted on an Opera Phenix Plus High-Content Screening System, using Alexa 488, Alexa 647, and Hoescht 33342 channels. Images were analyzed using Harmony 4.9."}, "[5]": {"target": "T1, CypE (Homo sapiens, UniProt Q9UNP9)", "T1 construct": "PPIE (UniProtKB Entry Q9UNP9: res 131-301); host or cells: E. coli BL21(DE3)", "T1 sequence (Q9UNP9 131-301)": "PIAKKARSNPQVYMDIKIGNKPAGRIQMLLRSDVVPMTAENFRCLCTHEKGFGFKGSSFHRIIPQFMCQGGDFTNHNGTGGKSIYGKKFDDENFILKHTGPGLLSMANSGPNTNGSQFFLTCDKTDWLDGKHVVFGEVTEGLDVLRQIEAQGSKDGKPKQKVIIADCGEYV", "experiment": "Competition anisotropy (fluorescence polarization) binding assay with A26-Fl", "conditions": "for CypE binding in FP competition (in words): compared to C3A", "description": "Competition anisotropy binding assay with A26-Fl: Adapted from previous work^54, into a flat-bottom black untreated 96 well plate (Corning), cyclophilin in assay buffer (25 mM HEPES pH 8.0, 100 mM NaCl, 0.01% Triton X-100) at a predetermined concentration from FIG. 27 was incubated with 0.5 nM A26-Fl for 10 minutes at room temperature. Competitor macrocycle was then added to each well and incubated for 24 hours. Final assay volume was 100 μL with 0.25% DMSO. Fluorescence anisotropy was then measured using a Tecan Spark® plate reader using 492 nm/523 nm excitation/emission settings. Raw fluorescence polarization data was normalized to protein+fluorescent probe and buffer+fluorescent probe and Ki values were calculated using one site-competitive binding equation with Prism 9, importing Kd values from A26-Fl (FIGS. 12A-12C)."}, "[6]": {"target": "T1, CypE", "experiment": "Chymotrypsin coupled prolyl-isomerase assay", "assay_type": "biochemical", "conditions": "for IC50: wild-type CypE, read-out: IC50^CypE", "description": "as §1"}, "[7]": {"target": "T2, CypD (Homo sapiens, UniProt P30405)", "T2 construct": "PPIF (UniProtKB Entry P30405: res 45-207); made in house; host or cells: E. coli BL21(DE3)", "T2 sequence (P30405 45-207)": "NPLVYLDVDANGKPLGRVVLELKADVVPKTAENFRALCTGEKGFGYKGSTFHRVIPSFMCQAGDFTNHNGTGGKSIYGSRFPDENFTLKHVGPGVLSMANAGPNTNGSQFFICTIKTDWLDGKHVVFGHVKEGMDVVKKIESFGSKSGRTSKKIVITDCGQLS", "experiment": "Chymotrypsin coupled prolyl-isomerase assay", "assay_type": "biochemical", "description": "as §1"}}, "note": "Entries after “also recorded” stand apart in the source; their conditions may differ."}
{"smiles": "NC(=O)[C@H]1CCNC(=O)/C=C/C(=O)N2CCC[C@](Cc3ccccc3)(C2)C(=O)N[C@H](Cc2ccc(-c3ccc(CC(C(=O)O)C(=O)O)cc3)cc2)C(=O)NCc2ccccc2CC(=O)N1", "note": "[*B52-A]", "values": [{"measurement": "inhibition of cyclophilins tested (in words)", "setting": "[1]", "result": "no substantial inhibition activity; also recorded: did not inhibit any cyclophilin"}]}
{"smiles": "NC(=O)[C@H]1CCNC(=O)/C=C/C(=O)N2CCC[C@](Cc3ccccc3)(C2)C(=O)N[C@H](Cc2ccc(-c3ccc(C(CC(=O)O)CC(=O)O)cc3)cc2)C(=O)NCc2ccccc2CC(=O)N1", "note": "[*B53-A]", "values": [{"measurement": "inhibition of cyclophilins tested (in words)", "setting": "[1]", "result": "no substantial inhibition activity; also recorded: did not inhibit any cyclophilin"}]}
{"smiles": "O=C1/C=C/C(=O)N2CCC[C@](Cc3ccccc3)(C2)C(=O)N[C@@H](Cc2ccco2)C(=O)NCc2ccccc2CC(=O)N[C@H](C(=O)NCCCOCCOCCOCCCNC(=O)c2ccc3c(c2)C(=O)OC32c3ccc(O)cc3Oc3cc(O)ccc32)CCN1", "note": "[Compound A26-Fl]", "values": [{"measurement": "binding to five non-prolyl isomerase active cyclophilins (PPIL2, PPIL3, PPIL4, PPIL6, SDCCAG-10)", "setting": "[2]", "result": "very weak or no binding"}, {"measurement": "binding to prolyl-isomerase-active cyclophilins (in words)", "setting": "[2]", "result": "promiscuously binds"}]}
{"smiles": "NCCOCCNC(=O)[C@@H]1CCNC(=O)/C=C/C(=O)N2CCC[C@](Cc3ccccc3)(C2)C(=O)N[C@@H](Cc2ccc(-c3ccccc3)cc2)C(=O)NCc2ccccc2CC(=O)N1", "note": "[Compound B2]", "values": [{"measurement": "cyclophilin selectivity profile (in words)", "setting": "[1]", "result": "selectivity over cyclophilins with sterically occluded S2 pockets"}]}
{"smiles": "NCCOCCNC(=O)[C@@H]1CCNC(=O)/C=C/C(=O)N2CCC[C@](Cc3ccccc3)(C2)C(=O)N[C@@H](Cc2ccc(-c3ccc(CCC(=O)O)cc3)cc2)C(=O)NCc2ccccc2CC(=O)N1", "note": "[Compound B23]", "values": [{"measurement": "cyclophilin selectivity profile (in words)", "setting": "[1]", "result": "selectivity over non-lysine-containing PPIL1, Cyp40, CypC, and PPWD1"}]}
{"smiles": "NCCOCCNC(=O)[C@@H]1CCNC(=O)/C=C/C(=O)N2CCC[C@](Cc3ccccc3)(C2)C(=O)N[C@@H](Cc2ccc(-c3ccc(C#CC(=O)O)cc3)cc2)C(=O)NCc2ccccc2CC(=O)N1", "note": "[Compound B25]", "values": [{"measurement": "cyclophilin selectivity profile (in words)", "setting": "[1]", "result": "selectivity over non-lysine-containing PPIL1, Cyp40, CypC, and PPWD1"}]}
{"smiles": "N#CCc1ccc(-c2ccc(C[C@@H]3NC(=O)[C@]4(Cc5ccccc5)CCCN(C4)C(=O)/C=C/C(=O)NCC[C@@H](C(=O)NCCOCCN)NC(=O)Cc4ccccc4CNC3=O)cc2)cc1C(=O)O", "note": "[Compound B51]", "values": [{"measurement": "cyclophilin selectivity profile (in words)", "setting": "[1]", "result": "hampers the selectivity"}, {"measurement": "inhibition of cyclophilins tested (in words)", "setting": "[1]", "result": "loss of potency"}]}
{"smiles": "NC(=O)[C@@H]1CCNC(=O)/C=C/C(=O)N2CCC[C@](Cc3ccccc3)(C2)C(=O)N[C@@H](Cc2ccc(-c3ccc(CC(C(=O)O)C(=O)O)cc3)cc2)C(=O)NCc2ccccc2CC(=O)N1", "note": "[Compound B52-A]", "values": [{"measurement": "cyclophilin selectivity profile (in words)", "setting": "[1]", "result": "retain the same selectivity profile"}]}
{"smiles": "CN1/C(=C/C=C/C=C/C2=[N+](CCCCCC(=O)NCCNC(=O)[C@@H]3CCNC(=O)/C=C/C(=O)N4CCC[C@](Cc5ccccc5)(C4)C(=O)N[C@@H](Cc4ccc(-c5ccc(CC(C(=O)O)C(=O)O)cc5)cc4)C(=O)NCc4ccccc4CC(=O)N3)c3ccccc3C2(C)C)C(C)(C)c2ccccc21", "note": "[Compound B52-Cy5]", "values": [{"measurement": "calcium retention capacity prior to mPTP opening", "setting": "[3]", "result": "increased calcium retention capacity"}, {"measurement": "cyclophilin selectivity profile (in words)", "setting": "[1]", "result": "retain the same selectivity profile"}, {"measurement": "mitochondrial localization (overlap with Mitotracker Green)", "setting": "[4]", "result": "poor mitochondrial localization and fluorescence"}, {"measurement": "plasma membrane / mammalian cell permeability", "setting": "[4]", "result": "not observed"}]}
{"smiles": "O=C1/C=C/C(=O)N2CCC[C@](Cc3ccccc3)(C2)C(=O)N[C@@H](Cc2ccc(-c3ccc(CC(C(=O)O)C(=O)O)cc3)cc2)C(=O)NCc2ccccc2CC(=O)N[C@H](C(=O)NCCCOCCOCCOCCCNC(=O)c2ccc3c(c2)C(=O)OC32c3ccc(O)cc3Oc3cc(O)ccc32)CCN1", "note": "[Compound B52-Fl]", "values": [{"measurement": "binding to five non-prolyl isomerase active cyclophilins (PPIL2, PPIL3, PPIL4, PPIL6, SDCCAG-10)", "setting": "[2]", "result": "very weak or no binding"}, {"measurement": "binding to prolyl-isomerase-active cyclophilins (in words)", "setting": "[2]", "result": "selective binding for CypD"}]}
{"smiles": "NC(=O)[C@@H]1CCNC(=O)/C=C/C(=O)N2CCC[C@](Cc3ccccc3)(C2)C(=O)N[C@@H](Cc2ccc(-c3ccc(C(CC(=O)O)CC(=O)O)cc3)cc2)C(=O)NCc2ccccc2CC(=O)N1", "note": "[Compound B53-A]", "values": [{"measurement": "cyclophilin selectivity profile (in words)", "setting": "[1]", "result": "retain the same selectivity profile"}]}
{"smiles": "O=C(O)CC(CC(=O)O)c1ccc(-c2ccc(C[C@@H]3NC(=O)[C@]4(Cc5ccccc5)CCCN(C4)C(=O)/C=C/C(=O)NCC[C@@H](C(=O)NCCCOCCOCCOCCCNC(=O)c4ccc5c(c4)C(=O)OC54c5ccc(O)cc5Oc5cc(O)ccc54)NC(=O)Cc4ccccc4CNC3=O)cc2)cc1", "note": "[Compound B53-Fl]", "values": [{"measurement": "binding to five non-prolyl isomerase active cyclophilins (PPIL2, PPIL3, PPIL4, PPIL6, SDCCAG-10)", "setting": "[2]", "result": "very weak or no binding"}, {"measurement": "binding to prolyl-isomerase-active cyclophilins (in words)", "setting": "[2]", "result": "selective binding for CypD"}]}
{"smiles": "CC(=O)c1ccc(-c2ccc(C[C@@H]3NC(=O)[C@]4(Cc5ccccc5)CCCN(C4)C(=O)/C=C/C(=O)NCC[C@@H](C(N)=O)NC(=O)Cc4ccccc4CNC3=O)cc2)cc1B(O)O", "note": "[Compound C1A]", "values": [{"measurement": "CypE binding in FP competition (in words)", "setting": "[5]", "result": "attenuated binding to CypE; also recorded: decreased potency for CypE"}, {"measurement": "CypE potency and selectivity in prolyl isomerase assay (in words)", "setting": "[6]", "result": "loss of potency and selectivity for CypE"}, {"measurement": "IC50", "setting": "[6]", "result": 0.9, "unit": "µM"}]}
{"smiles": "CC(=O)c1cc(-c2ccc(C[C@@H]3NC(=O)[C@]4(Cc5ccccc5)CCCN(C4)C(=O)/C=C/C(=O)NCC[C@@H](C(N)=O)NC(=O)Cc4ccccc4CNC3=O)cc2)ccc1B(O)O", "note": "[Compound C2A]", "values": [{"measurement": "CypE binding in FP competition (in words)", "setting": "[5]", "result": "attenuated binding to CypE; also recorded: decreased potency for CypE"}]}
{"smiles": "NC(=O)[C@@H]1CCNC(=O)/C=C/C(=O)N2CCC[C@](Cc3ccccc3)(C2)C(=O)N[C@@H](Cc2ccc(-c3cccc(B(O)O)c3)cc2)C(=O)NCc2ccccc2CC(=O)N1", "note": "[Compound C6A]", "values": [{"measurement": "decrease in potency relative to C3A", "setting": "[5]; FP competition with A26-Fl against CypE", "result": 100, "unit": "fold"}, {"measurement": "CypE binding in FP competition (in words)", "setting": "[5]", "result": "attenuated inhibition of CypE"}, {"measurement": "IC50", "setting": "[6]", "result": 4, "unit": "µM"}]}
{"smiles": "CC(=O)NCCNC(=O)CCCCCN1\\C(=C/C=C/C=C/C2=[N+](C)c3ccccc3C2(C)C)C(C)(C)c2ccccc21", "note": "[Cy5-enAc, reference compound]", "values": [{"measurement": "CypD prolyl-isomerase inhibition (in words)", "setting": "[7]", "result": "does not inhibit CypD"}, {"measurement": "mitochondrial localization (overlap with Mitotracker Green)", "setting": "[4]", "result": "good mitochondrial localization"}]}
